Details of data set [1]: method as in PMID 28245633. The settings on record: known selenocompounds; cited from earlier work.
The nature of data set [2]: Water solubility of methylseleno-aspirin (literature). Type of data set: physicochemical. The settings on record: recalculated taking molecular weight into account. An excerpt: The low solubility was not a surprise: according to the literature, the majority of the synthetic organic selenocompounds are poorly soluble in water. […] (or 0.0568 g/L when taking its molecular weight into account). […] To improve the solubility of water-insoluble anticancer drug candidates, the use of solubilizers, such as surfactants, organic solvents, cyclodextrins, lipids, and pH modifiers, is a common approach. Even though lowly water-soluble drugs can become moderately soluble if a suitable amount of additives is used, the usage of the additives need to be kept below their toxicity rate. Moreover, the usage of solubilizers can cause drug instability and is limited due to undesirable effects.

Details of data set [3]: method as in PMID 33260948. The settings on record: cited from earlier work.

In article PMC8875489, “Pharmaceutical and Safety Profile Evaluation of Novel Selenocompounds with Noteworthy Anticancer Activity” (Pharmaceutics, 2022) one finds permeability and water solubility data, which are given here for five compounds.

In brackets after ≈: the same amount, converted by molar mass. Where two headings read alike, the source gives them in different places.

As for `N#C[SeH]` [anionic selenocyanate, selenocyanate], the permeability in data set [1] is listed as 3.8%. On to `C[Se]C[C@H](N)C(=O)O` [methylselenocysteine], for which the permeability in data set [1] was 17.2%. Consider `C[Se]C(=O)c1ccccc1OC(C)=O` [methylseleno-aspirin], for which the results for the water solubility in data set [2] and in data set [3] were 56.8 µg/mL (≈ 221 µM) and 220 µM (≈ 56.6 µg/mL), respectively. On to `C[Se+](C)C` [cationic trimethylselenonium, trimethylselenonium], for which the permeability in data set [1] is reported as 3.0%. For the compound `O=[Se](O)O` [selenite], the permeability in data set [1] is 3.4%.
